Laboratory results taken from US20240182445A1 (ONO PHARMACEUTICAL CO., LTD., priority 2019, published 2024).

Target: T1, human TREK-1 (Homo sapiens, UniProt O95069)
T1 construct: expressed in transfected cells
T1 sequence (O95069 1-426): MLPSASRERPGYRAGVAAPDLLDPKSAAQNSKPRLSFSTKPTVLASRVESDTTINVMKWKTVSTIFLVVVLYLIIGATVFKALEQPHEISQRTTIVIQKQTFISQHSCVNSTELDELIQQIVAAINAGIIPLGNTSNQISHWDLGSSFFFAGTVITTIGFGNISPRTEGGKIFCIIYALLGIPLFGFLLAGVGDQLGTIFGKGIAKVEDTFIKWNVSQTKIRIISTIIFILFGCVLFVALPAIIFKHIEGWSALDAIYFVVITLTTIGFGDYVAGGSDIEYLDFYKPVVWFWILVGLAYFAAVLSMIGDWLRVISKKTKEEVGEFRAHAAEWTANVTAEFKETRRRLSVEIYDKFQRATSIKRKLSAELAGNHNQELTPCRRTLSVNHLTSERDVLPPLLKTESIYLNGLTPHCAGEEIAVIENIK
Assay: TREK-1 Thallium (Tl+) flux assay, Method 1
Assay type: cell-based
Settings: TREK-1 Thallium (Tl+) flux assay; no *^12 (Method 2) mark on these rows
In short: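 Readout: Thallos fluorescence ratio, taken 25 s post-thallium relative to the pre-thallium baseline average, then converted to % inhibition. Cells were CHO-K1 stably expressing human TREK-1, dye-loaded and exposed to test compound (vehicle 0.3% DMSO) for 10 min prior to thallium stimulation.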

With `CC(=O)N1C[C@H]2C[C@H](n3ncc(Cl)c3C(=O)Nc3ncc(C#Cc4ccc(F)cc4)cc3C)C[C@H]2C1` [Compound 331, 1-[(3aR,5s,6aS)-2-acetyloctahydrocyclopenta[c]pyrrol-5-yl]-4-chloro-N-{5-[(4-fluorophenyl)ethynyl]-3-methylpyridin-2-yl}-1H-pyrazole-5-carboxamide] the IC50 was 660 nM.
In the case of `Cc1cc(C#Cc2ccc(F)cc2)cnc1NC(=O)c1c(Cl)cnn1C1CC2(CCN(C(=O)C(C)C)C2)C1` (stereo not drawn) [Compound 332, 4-chloro-N-{5-[(4-fluorophenyl)ethynyl]-3-methylpyridin-2-yl}-1-[6-(2-methylpropanoyl)-6-azaspiro[3.4]octan-2-yl]-1H-pyrazole-5-carboxamide], the IC50 is reported as 660 nM.
For `Cc1cc(C#Cc2cccc(F)c2)cnc1NC(=O)c1c(Cl)cnn1[C@H]1CCOC1` [Compound 333, (S)-4-chloro-N-(5-((3-fluorophenyl)ethynyl)-3-methylpyridin-2-yl)-1-(tetrahydrofuran-3-yl)-1H-pyrazole-5-carboxamide], the IC50 was 670 nM.
In the case of `CC(C)(C)OC(=O)N1CC2(CC(n3ncc(Cl)c3C(=O)Nc3ncc(C#Cc4ccccc4)cc3F)C2)C1` [Compound 334, tert-butyl 6-(4-chloro-5-((3-fluoro-5-(phenylethynyl)pyridin-2-yl)carbamoyl)-1H-pyrazol-1-yl)-2-azaspiro[3.3]heptane-2-carboxylate], the IC50 is reported as 670 nM.
Work on `CC(C)(C)OC(=O)N1CCC(n2ncc(Cl)c2C(=O)Nc2ncc(C#Cc3cccs3)cc2F)CC1` [Compound 335, tert-butyl 4-(4-chloro-5-((3-fluoro-5-(thiophen-2-ylethynyl)pyridin-2-yl)carbamoyl)-1H-pyrazol-1-yl)piperidine-1-carboxylate] yielded an IC50 of 700 nM.
With `CC(C)(C)OC(=O)N1CC[C@@H](n2ncc(Cl)c2C(=O)Nc2ncc(C#Cc3ccccc3)cc2F)[C@H](F)C1` [Compound 337, tert-butyl (3R,4R)-4-(4-chloro-5-((3-fluoro-5-(phenylethynyl)pyridin-2-yl)carbamoyl)-1H-pyrazol-1-yl)-3-fluoropiperidine-1-carboxylate] the IC50 was 720 nM.
`Cc1cc(C#Cc2ccccc2)cnc1NC(=O)c1c(Cl)cnn1C[C@@H]1COCCO1` [Compound 338, (R)-1-((1,4-dioxan-2-yl)methyl)-4-chloro-N-(3-methyl-5-(phenylethynyl)pyridin-2-yl)-1H-pyrazole-5-carboxamide] was tested, and the IC50 was 730 nM.
`Cc1cc(C#Cc2ccc(F)cc2)cnc1NC(=O)c1c(Cl)cnn1CC1(F)CCN(C(=O)C(C)C)CC1` [Compound 339, 4-chloro-1-((4-fluoro-1-isobutyrylpiperidin-4-yl)methyl)-N-(5-((4-fluorophenyl)ethynyl)-3-methylpyridin-2-yl)-1H-pyrazole-5-carboxamide] showed an IC50 of 730 nM.
`Cc1cc(C#Cc2ccccc2)cnc1NC(=O)c1c(Cl)cnn1CC1CC(C)OC(C)C1` (stereo not drawn) [Compound 340, 4-chloro-1-((2,6-dimethyltetrahydro-2H-pyran-4-yl)methyl)-N-(3-methyl-5-(phenylethynyl)pyridin-2-yl)-1H-pyrazole-5-carboxamide] was tested, and the IC50 was 740 nM.
For `CC(=O)N1CC[C@@H](Cn2ncc(Cl)c2C(=O)Nc2ncc(C#Cc3ccc(F)cc3)cc2C)[C@H](F)C1` [Compound 341, 1-(((3S,4S)-1-acetyl-3-fluoropiperidin-4-yl)methyl)-4-chloro-N-(5-((4-fluorophenyl)ethynyl)-3-methylpyridin-2-yl)-1H-pyrazole-5-carboxamide], the IC50 was 740 nM.
For `Cc1cc(C#Cc2ccc(F)cc2)cnc1NC(=O)c1c(Cl)nn(C)c1-c1ccc2c(cnn2C)c1` [Compound 342, 3-chloro-N-(5-((4-fluorophenyl)ethynyl)-3-methylpyridin-2-yl)-1-methyl-5-(1-methyl-1H-indazol-5-yl)-1H-pyrazole-4-carboxamide], the IC50 was 750 nM.
`Cc1cc(C#Cc2cccs2)cnc1NC(=O)c1c(Cl)cnn1C[C@H]1COCCO1` [Compound 343, (S)-1-((1,4-dioxan-2-yl)methyl)-4-chloro-N-(3-methyl-5-(thiophen-2-ylethynyl)pyridin-2-yl)-1H-pyrazole-5-carboxamide] was tested, and the IC50 was 760 nM.
Work on `Cc1cc(C#Cc2ccc(F)cc2)cnc1NC(=O)c1c(Cl)cnn1C[C@@H]1CCCN(C(=O)OC(C)(C)C)C1` [Compound 344, tert-butyl (R)-3-((4-chloro-5-((5-((4-fluorophenyl)ethynyl)-3-methylpyridin-2-yl)carbamoyl)-1H-pyrazol-1-yl)methyl)piperidine-1-carboxylate] yielded an IC50 of 760 nM.
`Cc1cc(C#Cc2ccccc2)cnc1NC(=O)c1c(Cl)cnn1CC1CCCO1` (stereo not drawn) [Compound 345, 4-chloro-N-(3-methyl-5-(phenylethynyl)pyridin-2-yl)-1-((tetrahydrofuran-2-yl)methyl)-1H-pyrazole-5-carboxamide] was tested, and the IC50 was 770 nM.
For `CC(C)(C)OC(=O)N1CCC2(CC1)CC(n1ncc(Cl)c1C(=O)Nc1ncc(C#Cc3ccccc3)cc1F)C2` [Compound 346, tert-butyl 2-(4-chloro-5-((3-fluoro-5-(phenylethynyl)pyridin-2-yl)carbamoyl)-1H-pyrazol-1-yl)-7-azaspiro[3.5]nonane-7-carboxylate], the IC50 was 770 nM.
Compound `CCC(=O)N1CCOC(Cn2ncc(Cl)c2C(=O)Nc2ncc(C#Cc3ccc(F)cc3)cc2C)C1` (stereo not drawn) [Compound 347, 4-chloro-N-(5-((4-fluorophenyl)ethynyl)-3-methylpyridin-2-yl)-1-((4-propionylmorpholin-2-yl)methyl)-1H-pyrazole-5-carboxamide] has an IC50 of 770 nM.
`Cc1cc(C#Cc2ccc(F)cc2)cnc1NC(=O)c1c(Cl)cnn1CC1(F)CCN(C(=O)C2CC2C)CC1` (stereo not drawn) [Compound 348, 4-chloro-1-((4-fluoro-1-(2-methylcyclopropane-1-carbonyl)piperidin-4-yl)methyl)-N-(5-((4-fluorophenyl)ethynyl)-3-methylpyridin-2-yl)-1H-pyrazole-5-carboxamide] showed an IC50 of 780 nM.
In the case of `Cc1cc(C#Cc2cccc(F)c2)cnc1NC(=O)c1c(Cl)cnn1[C@H]1C[C@@H]2CN(C(=O)C(C)C)C[C@@H]2C1` [Compound 349, 4-chloro-N-{5-[(3-fluorophenyl)ethynyl]-3-methylpyridin-2-yl}-1-[(3aR,5s,6aS)-2-(2-methylpropanoyl)octahydrocyclopenta [c]pyrrol-5-yl]-1H-pyrazole-5-carboxamide], the IC50 is reported as 810 nM.
In the case of `Cc1cc(C#Cc2ccc(F)cc2)cnc1NC(=O)c1c(Cl)cnn1CC1CCN(C(=O)C(C)C)CC1(F)F` (stereo not drawn) [Compound 350, 4-chloro-1-((3,3-difluoro-1-isobutyrylpiperidin-4-yl)methyl)-N-(5-((4-fluorophenyl)ethynyl)-3-methylpyridin-2-yl)-1H-pyrazole-5-carboxamide], the IC50 is reported as 820 nM.
For `CC(=O)N[C@H]1C[C@H](n2ncc(Cl)c2C(=O)Nc2ncc(C#Cc3ccc(F)cc3)cc2C)C1` [Compound 351, 1-(trans-3-acetamidocyclobutyl)-4-chloro-N-(5-((4-fluorophenyl)ethynyl)-3-methylpyridin-2-yl)-1H-pyrazole-5-carboxamide], the IC50 was 820 nM.
`Cc1cc(C#Cc2ccccc2)cnc1NC(=O)c1c(Cl)cnn1[C@H]1C[C@@H]2CN(C(=O)C(C)(C)C)C[C@@H]2C1` [Compound 352, 4-chloro-1-[(3aR,5s,6aS)-2-(2,2-dimethylpropanoyl)octahydrocyclopenta [c]pyrrol-5-yl]-N-[3-methyl-5-(phenylethynyl)pyridin-2-yl]-1H-pyrazole-5-carboxamide] gave an IC50 of 840 nM.
`Cc1cc(C#Cc2ccccc2)cnc1NC(=O)c1c(Cl)cnn1[C@@H]1CCN(C(=O)OC(C)(C)C)C1` [Compound 353, tert-butyl (R)-3-(4-chloro-5-((3-methyl-5-(phenylethynyl)pyridin-2-yl)carbamoyl)-1H-pyrazol-1-yl)pyrrolidine-1-carboxylate] showed an IC50 of 850 nM.
In the case of `Cc1cc(C#Cc2cccs2)cnc1NC(=O)c1c(Cl)cnn1[C@H]1C[C@@H]2CN(C(=O)C(C)(C)C)C[C@@H]2C1` [Compound 354, 4-chloro-1-[(3aR,5s,6aS)-2-(2,2-dimethylpropanoyl)octahydrocyclopenta [c]pyrrol-5-yl]-N-{3-methyl-5-[(thiophen-2-yl)ethynyl]pyridin-2-yl}-1H-pyrazole-5-carboxamide], the IC50 is reported as 850 nM.
For `CCC(=O)N1CCCC(Cn2ncc(Cl)c2C(=O)Nc2ncc(C#Cc3ccc(F)cc3)cc2C)C1` (stereo not drawn) [Compound 355, 4-chloro-N-(5-((4-fluorophenyl)ethynyl)-3-methylpyridin-2-yl)-1-((1-propionylpiperidin-3-yl)methyl)-1H-pyrazole-5-carboxamide], the IC50 was 850 nM.
With `CC(=O)N1CCC(Cn2ncc(Cl)c2C(=O)Nc2ncc(C#Cc3ccccc3F)cc2C)CC1` [Compound 356, 1-((1-acetylpiperidin-4-yl)methyl)-4-chloro-N-(5-((2-fluorophenyl)ethynyl)-3-methylpyridin-2-yl)-1H-pyrazole-5-carboxamide] the IC50 was 860 nM.
Work on `Cc1cc(C#Cc2ccccc2)cnc1NC(=O)c1c(Cl)cnn1[C@H]1C[C@@H](NC(=O)OC(C)(C)C)C1` [Compound 357, tert-butyl (cis-3-(4-chloro-5-((3-methyl-5-(phenylethynyl)pyridin-2-yl)carbamoyl)-1H-pyrazol-1-yl)cyclobutyl)carbamate] yielded an IC50 of 870 nM.
`Cc1cc(C#Cc2ccccc2)cnc1NC(=O)c1c(Cl)cnn1C1CCCC(NC(=O)OC(C)(C)C)C1` (stereo not drawn) [Compound 358, tert-butyl (3-(4-chloro-5-((3-methyl-5-(phenylethynyl)pyridin-2-yl)carbamoyl)-1H-pyrazol-1-yl)cyclohexyl)carbamate] gave an IC50 of 880 nM.
